Results as given in patent US9163060B2, “Tubulin inhibitors” (R&D BIOPHARMACEUTICALS GMBH, priority 2009, dated 2015).

Tested on: HT-29
Assay: fluorometric resazurin-based anti-proliferative assay, HT-29
Conditions: Homo sapiens, HT-29 cancer cell line
Procedure: Determination of the IC-50 Concentration Against Various Cancer Cell Lines
The anti-proliferative activity of some representative example compounds of the present invention was determined in-vitro using a fluorometric resazurin-based assay. Cancer cell proliferation and viability was quantified upon reduction of non-fluorescent resazurin into the fluorescent dye resorufin by metabolically active cells as described in Strotmann, U. J., et al., The dehydrogenase assay with resazurin: Practical performance as a monitoring system and pH-dependent toxicity of phenolic compounds. Ecotox. Environ. Safety 25, 79-89, (1993).

SMILES: CCCO[C@H](C[C@H](C(C)C)N(CCC)C(=O)C(NC(=O)C1CCCCN1C)[C@@H](C)CC)c1nc(C(=O)N[C@@H](Cc2ccc(O)cc2)C(=O)O)cs1 (stereo partly drawn)
- IC50: 3.1 ± 0.6 nM

SMILES: CC[C@H](C)C(NC(=O)C1CCCCN1C)C(=O)N(C)[C@H](C[C@@H](OC(C)=O)c1nc(C(=O)N[C@@H](Cc2ccccc2)C(=O)O)cs1)C(C)C (stereo partly drawn)
- IC50: 3.2 ± 0.4 nM

SMILES: CCCN(C(=O)C(NC(=O)C1CCCCN1C)[C@@H](C)CC)[C@H](C[C@@H](OC(C)=O)c1nc(C(=O)N[C@@H](Cc2ccc(F)cc2)C(=O)O)cs1)C(C)C (stereo partly drawn)
- IC50: 1 ± 0.2 nM

SMILES: CCCN(C(=O)C(NC(=O)C1CCCCN1C)[C@@H](C)CC)[C@H](C[C@@H](OCOC)c1nc(C(=O)N[C@@H](Cc2ccccc2)C(=O)O)cs1)C(C)C (stereo partly drawn)
- IC50: 51.1 ± 2.6 nM

SMILES: CCCN(C(=O)C(NC(=O)C1CCCCN1C)[C@@H](C)CC)[C@H](C[C@@H](OC(C)=O)c1nc(C(=O)N[C@@H](Cc2ccccc2)C(=O)NCCO)cs1)C(C)C (stereo partly drawn)
- IC50: 3.9 ± 0.7 nM

SMILES: CCCN(C(=O)C(NC(=O)C1CCCCN1C)[C@@H](C)CC)[C@H](C[C@@H](OC(C)=O)c1nc(C(=O)N[C@@H](Cc2ccccc2)C(=O)O)cs1)C(C)C (stereo partly drawn)
- IC50: 4.5 ± 0.5 nM
